The assay has as its system S. cerevisiae AGP1-GFP strain, flow cytometry fluorescence, 3 h. The experiment in a line: analog potency on AGP1-GFP expression in yeast, SAR follow-up, cell-based, flow cytometry, S. cerevisiae, cherry pick 3 (AID 488790). In general terms: A flow cytometer gives signals particle by particle.

As usually defined, the EC50 is the concentration giving half of the maximal effect.

Consider `CCOC(=O)CS(=O)(=O)c1nc(-c2ccccc2)cc(C(F)(F)F)n1`, for which the concentration for a half-maximal effect (EC50) is 4.59 µM.
